The values that follow are results of earlier work, collected in patent US8632828B2, “Chinese herbal medicine composition used for antiinflammation, detumescence and acesodyne, and preparation method and use thereof” (priority 2009, dated 2014).

One data set has as its system mice. Conditions: subcutaneous injection.
The next data set has as its system People. Conditions: oral administration.
The next data set concerns rats. Conditions: intravenous injection.
A further data set concerns melanin tumour. Conditions: mice, intraperitoneal injection.
Data set [1] concerns ehrlich ascites tumor of mice. Conditions: intraperitoneal injection.

In general, LD50 refers to the dose expected to kill half of the subjects tested. Consider `CCN1C[C@]2(COC)[C@H](O)C[C@H](OC)[C@@]34[C@@H]5C[C@@]6(O)[C@H](OC(=O)c7ccccc7)[C@@H]5[C@@](OC(C)=O)([C@@H]([C@H](OC)[C@H]23)[C@@H]14)[C@@H](O)[C@@H]6OC` [Aconitine], for which the LD50 in the data set on mice is 0.32 mg/kg. Besides, in the data set on People, the fatal dosage is on record as 2~5 mg.

Consider `COc1c2ccoc2cc2oc(=O)ccc12` [bergapten], for which the LD50 in the data set on rats was 945 mg/kg.

For `Cc1cc(O)c2c(c1)C(=O)c1cc(O)cc(O)c1C2=O` [emodin], in the data set on melanin tumour, the “inhibiting effect on melanin tumour” value is on record as “injection, have good inhibiting”. In data set [1], the “inhibiting effect on ehrlich ascites tumor” value is recorded as “injection, have good inhibiting”.

As to `COC[C@]12CN(C)[C@@H]3[C@@H]4[C@H](OC)[C@H]1[C@@]3([C@@H](OC)C[C@H]2O)[C@@H]1C[C@@]2(O)[C@H](OC(=O)c3ccccc3)[C@@H]1[C@]4(OC(C)=O)[C@@H](O)[C@@H]2OC` [mesaconitine], the fatal dosage entry in the data set with mice is given as “fatal dosage was 0.3~0.5 mg/kg”.

In the case of `COc1c2occc2cc2ccc(=O)oc12` [xanthotoxin], the LD50 with rats is given as 160 mg/kg.
